Laboratory results: patent publication US20240148728A1, “NOVEL METHOD TO BLOCK IN[…] DEATH AND IL-1BETA SECRETION CAUSED BY […] UV I[…] GENETIC AND CHEMICAL INHIBITORS OF ZAKA AND THE NLRP1 INFLAMMASOME” (priority 2021, published 2024)
Entries after “also recorded” stand apart in the source; their conditions may differ.

How the values were obtained:
293T-ASC-GFP-NLRP1 = assay type: cell-based, human
[1] = tested on: immortalized keratinocytes (N-TERT); assay: Pyroptosis / apoptosis in N-TERT keratinocytes (morphology, ASC-GFP, PI, Annexin V, immunoblot); assay type: cell-based, human
From the text: (§1) The following antibodies were used in this study: cleaved PARP1 (Abclonal, #WH162766), Cleaved CASP3 (Abclonal, #WH154646), Full length GSDMD-FL (Abcam, #ab210070), IL1β p17 specific (CST, #83186S), CARD8 (Abcam, CARD8-NT: ab19485, CARD8-CT: ab241186), DPP9 (Abcam, ab226334), c-Myc (Santa Cruz Biotechnology, #sc-40), HA tag (Santa Cruz Biotechnology, #sc-805), GAPDH (Santa Cruz Biotechnology, #sc-47724), ASC (Adipogen, #AL-177), CASP1 (Santa Cruz Biotechnology, #sc-622), 11_1B (R&D systems, #AF-201), FLAG (SigmaAldrich, #F3165), NLRP1 (R&D systems, #AF6788), IL18 (Abcam ab207324), cleaved GSDMD-NT (Asp275) (Cell Signaling Technology, #36425), RPL31 (Abclonal, #WH162766), CASP7 (Abcam, ab255818), CASP8 (Abcam, ab32397), cleaved CASP3 (Cell Signaling Technology, #9664). All horseradish peroxidase (HRP)— conjugated secondary antibodies were purchased from Jackson Immunoresearch (goat anti-mouse IgG: 115-035-166; goat anti-rabbit IgG: 111-035-144; and donkey anti-goat IgG: 705-005-147). Blue-Native PAGE was carried out using the Native-PAGE system (ThermoFisher) with 10-20 μg of total lysate. For SDS-PAGE using whole cell lysates, cells were resuspended in tris-buffered saline 1% NP-40 with protease inhibitors (Thermo Scientific, #78430). Protein concentration was determined using the Bradford assay (Thermo Scientific, #23200) and […] of protein loaded, a part from cleaved GSDMD-NT visualisation where […] of protein was used. All primary antibodies were used at 250 ng/ml. Visualisation of ASC oligomerization was previously described (Robinson et al., 2020). For analysis of IL1β and IL-18 cleavage in the media by immunoblotting, samples were concentrated using filtered centrifugation (Merck, Amicon Ultra, #UFC5003BIK). Protein samples were run using immunoblotting, and then visualized using a ChemiDoc Imaging system (Bio-Rad). PhosTag SDS-PAGE was carried out using homemade 10% SDS-PAGE gel, with addition of Phos-tag Acrylamide (Wako Chemicals, AAL-107) to a final concentration of 30 μM and manganese chloride(II) (Sigma-Aldrich, #63535) to 60 μM.
N-TERT-ASC-GFP cells were seeded at a cell density of 3000 cells/well of a 96 black well plate (PerkinElmer, CellCarrier-96 Ultra, #6055300). The next morning cells were treated with chemicals for 6 h or treated in the evening for 24 h before staining. 1 hour before observing the cells on the microscope the cells were stained with 1 μg/ml dilution of propidium iodide (PI, Abcam #ab14083), 10 ng/ml dilution of Hoechst 33342 (Life Technologies, #H21492) or stained with Annexin V Alexa Flour 647 (Life technologies, #A23204) according to the manufacturer's protocol. Stained cells were then imaged on a high content screening microscope (Perkin Elmer Operetta CLS imaging system). Images were then stored and analyzed using the Harmony software (Version 6). Fluorescent and brightfield images acquired on the Operetta high content screening microscope were further analyzed using a scoring system to categorize the percentages of live, apoptotic and pyroptotic cells. For 3 fields of view per treatment the number of live cells per field was counted from the merge of the brightfield and ASC-GFP channels. Only cells which contained ASC-GFP throughout the cytoplasm and nucleus were classed as “live”. The number of pyroptotic cells was calculated using the merge of the brightfield and ASC-GFP channels. Only the cells with GFP specks were classed as “pyroptotic”. The number of apoptotic cells was calculated using the merge of the brightfield, ASC-GFP and Annexin V channels. Cells that were stained positive for Annexin V but without a GFP speck were classified as “apoptotic”. Images of ASC-GFP specks were acquired in 3 random fields in 4′,6-diaminidino-2-phenylindole (DAPI, 358 nm/461) and GFP (469 nm/525 nm) channels using the EVOS microscope (FL Auto M5000, #AM F5000) according to the manufacturer's protocol. […]

[2] = tested on: primary human keratinocytes; assay: Inflammasome-driven pyroptosis in primary human keratinocytes; assay type: cell-based; conditions: keratinocytes freshly isolated from a healthy donor
[3] = tested on: primary bronchial epithelial cells (NHBEs); assay: Inflammasome activation and pyroptosis in primary bronchial epithelial cells; assay type: cell-based, human; conditions: ANS 1 μM
MV4-11 = assay: GSDMD cleavage in MV4-11 leukemia cell line; assay type: cell-based, human; conditions: CARD8-activating cell line
human DPP9 = target: T1, human DPP9 (Homo sapiens, UniProt Q86TI2); assay: DPP8/9 activity assay (in vitro proteolysis assay); assay type: biochemical; conditions: Gly-Pro-AMC hydrolysis
T1 construct: expressed in transfected cells; host or cells: 293T
T1 sequence (Q86TI2 whole entry): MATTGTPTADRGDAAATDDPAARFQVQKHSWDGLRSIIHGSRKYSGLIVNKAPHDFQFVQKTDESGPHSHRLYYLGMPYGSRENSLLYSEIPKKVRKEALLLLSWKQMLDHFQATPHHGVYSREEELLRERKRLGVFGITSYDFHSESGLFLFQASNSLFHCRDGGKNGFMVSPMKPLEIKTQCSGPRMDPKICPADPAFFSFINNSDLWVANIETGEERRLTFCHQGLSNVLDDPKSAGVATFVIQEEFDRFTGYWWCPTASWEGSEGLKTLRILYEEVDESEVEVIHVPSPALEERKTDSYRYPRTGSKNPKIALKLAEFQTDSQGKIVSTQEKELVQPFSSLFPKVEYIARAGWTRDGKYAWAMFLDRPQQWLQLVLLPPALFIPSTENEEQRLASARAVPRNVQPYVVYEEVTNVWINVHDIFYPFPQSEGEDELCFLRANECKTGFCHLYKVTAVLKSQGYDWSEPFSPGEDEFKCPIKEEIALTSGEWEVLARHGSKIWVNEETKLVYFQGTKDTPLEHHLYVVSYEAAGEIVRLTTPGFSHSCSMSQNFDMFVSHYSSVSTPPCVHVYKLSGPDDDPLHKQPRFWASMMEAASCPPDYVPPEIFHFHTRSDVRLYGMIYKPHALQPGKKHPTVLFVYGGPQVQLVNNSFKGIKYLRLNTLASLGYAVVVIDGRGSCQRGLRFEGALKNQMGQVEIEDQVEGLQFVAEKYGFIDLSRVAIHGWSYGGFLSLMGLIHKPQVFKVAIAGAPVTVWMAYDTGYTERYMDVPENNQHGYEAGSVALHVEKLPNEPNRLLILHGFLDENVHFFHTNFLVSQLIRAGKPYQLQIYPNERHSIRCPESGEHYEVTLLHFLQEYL
Method: 293T cells were transfected with vector or wild-type DPP9. DPP9-transfected cells were treated with VbP, Anisomycin (ANS) or Harringtonine (HTN). Cells were lysed in PBS 1% Tween-20, 48 h after transfection and treatments. 0.3 μg of total lysate was then incubated with 0.1 μM uGly-Pro-AMC fluorescence substrate. AMC fluorescence was measured after 30 mins at 25° C. in a 50 μl reaction every minute on a spectrometer and the rate of Gly-Pro-AMC hydrolysis per minute calculated.

NLRP1-NT = assay: NLRP1 cleavage / NLRP1-NT level by immunoblot; assay type: cell-based, human
From the text: as §1

NLRP1^DR = assay: NLRP1 PYD-DR1 / NLRP1^DR phosphorylation (GFP fusion, immunoblot, PhosTag SDS-PAGE) in N-TERT cells; assay type: cell-based, human
From the text: as §1
Cells were directly harvested using Laemmli buffer, lysed with an ultrasonicator, and loaded into the Phos-tag gel to run. Once the run was completed, the polyacrylamide gel was washed in transfer buffer with 10 mM EDTA twice, subsequently washed without EDTA twice, blotted onto 0.45 μm PVDF membranes (Bio-rad), blocked with 3% milk, and incubated with primary and corresponding secondary antibodies.

[4] = tested on: mouse bone marrow derived macrophages (BMDMs); assay: ANS-triggered IL1β secretion and cell death in mouse bone marrow derived macrophages; assay type: cell-based

With `COc1ccc(C[C@H]2NC[C@H](O)[C@H]2OC(C)=O)cc1` [ANS, Anisomycin] the “ASC-GFP speck formation, screen of cytotoxic chemicals” value (293T-ASC-GFP-NLRP1; ANS 1 μM, LTM 1 μg/ml, STS 1 μM) was “identified two hits”, the “percentage of cells with ASC-GFP specks compared with VbP” value (293T-ASC-GFP-NLRP1; equivalent concentrations) was “to a greater extent than VbP at equivalent concentrations” and the “dose dependence of percentage of cells with ASC-GFP specks” value (293T-ASC-GFP-NLRP1; increasing levels of ANS) was “in a dose-dependent manner (FIG. 2B) up to 20 μM”. The “mode of cell death (apoptosis / pyroptosis)” value ([1]; Annexin V staining and PI inclusion, immunoblot markers) was “caused both apoptosis and pyroptosis; also recorded: activate both forms of cell death”, the “mode of cell death in NLRP1 KO cells” value ([1]; NLRP1 KO N-TERT, Annexin V and PI staining) was “died exclusively through apoptosis” and the “apoptotic cell death (cleaved caspase-3 and PARP-1)” value ([1]; immunoblot) was “activated classical apoptotic cell death”. For the same compound, the “biochemical hallmarks of inflammasome activation (ASC polymerization, GSDMD-NT, IL1β p17 in media)” value ([1]; immunoblot) was “displayed cardinal biochemical hallmarks of inflammasome activation”, the “morphological hallmarks of inflammasome activation and pyroptotic cell death” value ([1]; membrane ballooning, ASC-GFP specks, PI uptake) was “rapidly induced the morphological hallmarks of inflammasome activation and pyroptotic cell death” and the “fraction of pyroptotic cells” value ([1]; single cell level, compared with VbP) was “comparable to that induced by VbP”. The inflammasome-driven pyroptosis [2] was “induce inflammasome-driven pyroptosis was also confirmed”, the “canonical inflammasome activation and pyroptosis” value [3] was “underwent canonical inflammasome activation and pyroptosis” and the GSDMD cleavage (MV4-11) was “did not display detectable GSDMD cleavage”. The “catalytic activity of human DPP9” value (human DPP9) was “had no effect on the catalytic activity of human DPP9”, the “specific cleavage of overexpressed NLRP1 (smaller bands)” value (NLRP1-NT; ANS-treated cells) was “did not observe any smaller bands” and the “level of intact NLRP1-NT” value (NLRP1-NT; NLRP1 KO keratinocytes rescued with full-length NLRP1) was “caused a significant reduction in the level of intact NLRP1-NT”. For the same compound, the “NLRP1^DR hyperphosphorylation” value (NLRP1^DR; NLRP1DR-GFP in N-TERT cells, PhosTag SDS-PAGE) was “became further phosphorylated”, the “band shift (phosphorylation) of PYD-DR1-GFP” value (NLRP1^DR; NLRP1 KO N-TERT cells expressing GFP-tagged PYD-DR1) was “band shift in PYD-DR1-GFP” and the “IL1β secretion and cell death, wild-type versus Nlrp1a/b KO” value [4] was “did not differ between wild-type and NIrp1a/b KO”.
